Key:
[1] = target: T1, HCV polymerase (NS5B) type 1b (Hepatitis C virus genotype 1b, UniProt P26663); assay: Assay of enzyme (HCV polymerase) inhibitory activity, type 1b enzyme; assay type: biochemical, HCV BK strain (type 1b); settings: HCV polymerase inhibitory activity IC50, 1b, type 1b enzyme
T1 construct: a region encoding NS5B (J Virol 1991 March, 65(3), 1105-13, 544 amino acids after deletion of 47 amino acids on the C-terminal); 6xHis (C); made in house; host or cells: Escherichia coli
Summary of the method: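 NS5B from HCV BK strain (type 1b), C-terminal 47 aa deleted, C-terminal His6-tagged, E. coli-expressed, 0.5 μg/ml, with ~450 nt substrate RNA carrying the 3′ UTR (polyU, 3′X) at 5 μg/ml. Incubation 60 min at 25 °C with 50 μM ATP/GTP/CTP, 2 μM UTP plus [3H]UTP, pH 7.5 Tris.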

[2] = target: T2, HCV polymerase (NS5B) type 1a (Hepatitis C virus genotype 1a, UniProt P26664); assay: Assay of enzyme (HCV polymerase) inhibitory activity, type 1a enzyme; assay type: biochemical, HCV type 1a (cloned from the blood of patients); settings: HCV polymerase inhibitory activity IC50, 1a, type 1a enzyme
T2 construct: made in house; host or cells: Escherichia coli (by the 'similar method' of the 1b enzyme)
Summary of the method: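 Patient-derived type 1a NS5B (C-terminal 47-aa deletion, His-tagged, E. coli-expressed) at 1.5 μg/ml was reacted with 5 μg/ml 3′UTR-containing substrate RNA, 50 μM ATP/GTP/CTP, 2 μM UTP plus [3H]UTP, pH 7.5, 25° C for 60 min. TCA-precipitated RNA radioactivity was counted; IC50 from ± compound.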

O=C(O)CCc1cncc2ncc(N3CCN(S(=O)(=O)c4ccc(OC(F)(F)F)cc4)[C@@H](C(=O)NCc4ccc(OC(F)(F)F)cc4)C3)nc12 [Example 808, 3-{2-[(R)-4-(4-trifluoromethoxy-benzenesulfonyl)-3-(4-trifluoromethoxy-benzylcarbamoyl)-piperazin-1-yl]-pyrido[3,4-b]pyrazin-8-yl}-propionic acid]
IC50 [1]: < 0.1 µM | IC50 [2]: < 0.1 µM

Cc1nc(N2CCN(S(=O)(=O)c3ccc(OC(F)(F)F)cc3)[C@@H](C(=O)NCc3ccc(OC(F)(F)F)cc3)C2)cnc1C(=O)O [Example 809, (R)-6′-methyl-4-(4-trifluoromethoxy-benzenesulfonyl)-3-(4-trifluoromethoxy-benzylcarbamoyl)-3,4,5,6-tetrahydro-2H-[1,2′]bipyrazinyl-5′-carboxylic acid]
IC50 [1]: < 0.1 µM | IC50 [2]: < 0.1 µM

NC(=O)CCc1cncc2ncc(N3CCN(S(=O)(=O)c4ccc(OC(F)(F)F)cc4)[C@@H](C(=O)NCc4ccc(OC(F)(F)F)cc4)C3)nc12 [Example 810, (R)-4-[8-(2-carbamoyl-ethyl)-pyrido[3,4-b]pyrazin-2-yl]-1-(4-trifluoromethoxy-benzenesulfonyl)-piperazine-2-carboxylic acid 4-trifluoromethoxy-benzylamide]
IC50 [1]: < 0.1 µM | IC50 [2]: < 0.1 µM

O=C(NCCCc1ccccc1)[C@H]1CN(c2cnc3cncnc3n2)CCN1S(=O)(=O)c1ccc(OC(F)(F)F)cc1 [Example 811, (R)-4-pteridin-7-yl-1-(4-trifluoromethoxy-benzenesulfonyl)-piperazine-2-carboxylic acid (3-phenyl-propyl)-amide]
IC50 [1]: 0.1 to 1 µM | IC50 [2]: 0.1 to 1 µM

CCCc1ccc(CNC(=O)[C@H]2CN(c3nc4cn[nH]c(=O)c4s3)CCN2S(=O)(=O)c2ccc(CC)cc2)cc1 [Example 812, (R)-1-(4-ethyl-benzenesulfonyl)-4-(7-oxo-6,7-dihydro-thiazolo[4,5-d]pyridazin-2-yl)-piperazine-2-carboxylic acid 4-propyl-benzylamide]
IC50 [1]: < 0.1 µM | IC50 [2]: < 0.1 µM

CCCc1ccc(CNC(=O)[C@H]2CN(c3cnc4cncc(Br)c4n3)CCN2S(=O)(=O)c2ccc(CC)cc2)cc1 [Example 813, (R)-4-(8-bromo-pyrido[3,4-b]pyrazin-2-yl)-1-(4-ethyl-benzenesulfonyl)-piperazine-2-carboxylic acid 4-propyl-benzylamide]
IC50 [1]: < 0.1 µM | IC50 [2]: < 0.1 µM

CCCc1ccc(CNC(=O)[C@H]2CN(c3cnc4c(C(=O)O)cccc4n3)CCN2S(=O)(=O)c2ccc(CC)cc2)cc1 [Example 814, 2-[(R)-4-(4-ethyl-benzenesulfonyl)-3-(4-propyl-benzylcarbamoyl)-piperazin-1-yl]-quinoxaline-5-carboxylic acid]
IC50 [1]: < 0.1 µM | IC50 [2]: < 0.1 µM

CCCc1ccc(CNC(=O)[C@H]2CN(c3cnc4cncc(C(=O)O)c4n3)CCN2S(=O)(=O)c2ccc(CC)cc2)cc1 [Example 815, 2-[(R)-4-(4-ethyl-benzenesulfonyl)-3-(4-propyl-benzylcarbamoyl)-piperazin-1-yl]-pyrido[3,4-b]pyrazine-8-carboxylic acid]
IC50 [1]: < 0.1 µM | IC50 [2]: < 0.1 µM

CCCc1ccc(CNC(=O)[C@H]2CN(c3cnc4cccc(C(=O)O)c4n3)CCN2S(=O)(=O)c2ccc(CC)cc2)cc1 [Example 816, 3-[(R)-4-(4-ethyl-benzenesulfonyl)-3-(4-propyl-benzylcarbamoyl)-piperazin-1-yl]-quinoxaline-5-carboxylic acid]
IC50 [1]: < 0.1 µM | IC50 [2]: < 0.1 µM

CCCc1ccc(CNC(=O)[C@H]2CN(c3cnc4c(C(=O)O)cccc4n3)CCN2S(=O)(=O)c2ccc(OC(F)(F)F)cc2)cc1 [Example 817, 2-[(R)-3-(4-propyl-benzylcarbamoyl)-4-(4-trifluoromethoxy-benzenesulfonyl)-piperazin-1-yl]-quinoxaline-5-carboxylic acid]
IC50 [1]: < 0.1 µM | IC50 [2]: < 0.1 µM

CCCc1ccc(CNC(=O)[C@H]2CN(c3nc4c(C(=O)O)cccc4s3)CCN2S(=O)(=O)c2ccc(CC)cc2)cc1 [Example 818, 2-[(R)-4-(4-ethyl-benzenesulfonyl)-3-(4-propyl-benzylcarbamoyl)-piperazin-1-yl]-benzothiazole-4-carboxylic acid]
IC50 [1]: < 0.1 µM | IC50 [2]: < 0.1 µM

CCCc1ccc(CNC(=O)[C@H]2CN(c3nc4cn[nH]c(=O)c4s3)CCN2S(=O)(=O)c2ccc(OC(F)(F)F)cc2)cc1 [Example 819, (R)-4-(7-oxo-6,7-dihydro-thiazolo[4,5-d]pyridazin-2-yl)-1-(4-trifluoromethoxy-benzenesulfonyl)-piperazine-2-carboxylic acid 4-propyl-benzylamide]
IC50 [1]: < 0.1 µM | IC50 [2]: < 0.1 µM

CCCc1ccc(CNC(=O)[C@H]2CN(c3nc4cn[nH]c(=O)c4s3)CCN2S(=O)(=O)c2ccc(C(F)(F)F)cc2)cc1 [Example 820, (R)-4-(7-oxo-6,7-dihydro-thiazolo[4,5-d]pyridazin-2-yl)-1-(4-trifluoromethyl-benzenesulfonyl)-piperazine-2-carboxylic acid 4-propyl-benzylamide]
IC50 [1]: < 0.1 µM | IC50 [2]: < 0.1 µM

CCC(F)(F)c1ccc(CNC(=O)[C@H]2CN(c3nc4cn[nH]c(=O)c4s3)CCN2S(=O)(=O)c2ccc(OC(F)(F)F)cc2)cc1 [Example 821, (R)-4-(7-oxo-6,7-dihydro-thiazolo[4,5-d]pyridazin-2-yl)-1-(4-trifluoromethoxy-benzenesulfonyl)-piperazine-2-carboxylic acid 4-(1,1-difluoro-propyl)-benzylamide]
IC50 [1]: < 0.1 µM | IC50 [2]: < 0.1 µM

CCCc1ccc(CNC(=O)[C@H]2CN(c3ccc(C(=O)O)c(C)n3)CCN2S(=O)(=O)c2ccc(OC(F)(F)F)cc2)cc1 [Example 822, 2-methyl-6-[(R)-3-(4-propyl-benzylcarbamoyl)-4-(4-trifluoromethoxy-benzenesulfonyl)-piperazin-1-yl]-nicotinic acid]
IC50 [1]: < 0.1 µM | IC50 [2]: < 0.1 µM

CCCc1ccc(CNC(=O)[C@H]2CN(c3nc(C)c(C(=O)O)cc3F)CCN2S(=O)(=O)c2ccc(OC(F)(F)F)cc2)cc1 [Example 823, 5-fluoro-2-methyl-6-[(R)-3-(4-propyl-benzylcarbamoyl)-4-(4-trifluoromethoxy-benzenesulfonyl)-piperazin-1-yl]-nicotinic acid]
IC50 [1]: 0.1 to 1 µM | IC50 [2]: 0.1 to 1 µM

CCCc1ccc(CNC(=O)[C@H]2CN(c3cnc4cncc(C(=O)O)c4n3)CCN2S(=O)(=O)c2ccc(OC(F)(F)F)cc2)cc1 [Example 824, 2-[(R)-3-(4-propyl-benzylcarbamoyl)-4-(4-trifluoromethoxy-benzenesulfonyl)-piperazin-1-yl]-pyrido[3,4-b]pyrazine-8-carboxylic acid]
IC50 [1]: < 0.1 µM | IC50 [2]: < 0.1 µM

CCCc1ccc(CNC(=O)[C@H]2CN(c3nc4cn[nH]c(=O)c4s3)CCN2S(=O)(=O)c2ccc([N+](=O)[O-])cc2)cc1 [Example 825, (R)-1-(4-nitro-benzenesulfonyl)-4-(7-oxo-6,7-dihydro-thiazolo[4,5-d]pyridazin-2-yl)-piperazine-2-carboxylic acid 4-propyl-benzylamide]
IC50 [1]: < 0.1 µM | IC50 [2]: < 0.1 µM

CCCc1ccc(CNC(=O)[C@H]2CN(c3nc(C)c(CCC(=O)O)s3)CCN2S(=O)(=O)c2ccc(OC(F)(F)F)cc2)cc1 [Example 826, 3-{4-methyl-2-[(R)-3-(4-propyl-benzylcarbamoyl)-4-(4-trifluoromethoxy-benzenesulfonyl)-piperazin-1-yl]-thiazol-5-yl}-propionic acid]
IC50 [1]: < 0.1 µM | IC50 [2]: < 0.1 µM

CCCc1ccc(CNC(=O)[C@H]2CN(c3nc(C)c(S(N)(=O)=O)s3)CCN2S(=O)(=O)c2ccc(OC(F)(F)F)cc2)cc1 [Example 827, (R)-4-(4-methyl-5-sulfamoyl-thiazol-2-yl)-1-(4-trifluoromethoxy-benzenesulfonyl)-piperazine-2-carboxylic acid 4-propyl-benzylamide]
IC50 [1]: < 0.1 µM | IC50 [2]: < 0.1 µM

CCCc1ccc(CNC(=O)[C@H]2CN(c3nc(C)c(S(=O)(=O)NC)s3)CCN2S(=O)(=O)c2ccc(OC(F)(F)F)cc2)cc1 [Example 828, (R)-4-(4-methyl-5-methylsulfamoyl-thiazol-2-yl)-1-(4-trifluoromethoxy-benzenesulfonyl)-piperazine-2-carboxylic acid 4-propyl-benzylamide]
IC50 [1]: < 0.1 µM | IC50 [2]: < 0.1 µM

CCCc1ccc(CNC(=O)[C@H]2CN(c3nc(C)c(S(=O)(=O)N(C)C)s3)CCN2S(=O)(=O)c2ccc(OC(F)(F)F)cc2)cc1 [Example 829, (R)-4-(5-dimethylsulfamoyl-4-methyl-thiazol-2-yl)-1-(4-trifluoromethoxy-benzenesulfonyl)-piperazine-2-carboxylic acid 4-propyl-benzylamide]
IC50 [1]: < 0.1 µM | IC50 [2]: 0.1 to 1 µM

CCCc1ccc(CNC(=O)[C@H]2CN(C(=O)Nc3ccccc3)CCN2S(=O)(=O)c2ccc(OC(F)(F)F)cc2)cc1 [Example 830, (R)-4-(4-trifluoromethoxy-benzenesulfonyl)-piperazine-1,3-dicarboxylic acid 1-phenylamide 3-(4-propyl-benzylamide)]
IC50 [1]: < 0.1 µM | IC50 [2]: 0.1 to 1 µM
